Test results published in US6262036A, “Method for inhibiting RNA translation using chimeric oligonucleoside compounds” (priority 2000, dated 2001).
Several values for one entry are separate records, joined by “and”; a condition that tells them apart may be missing. Equal entries are not always repeated.

Columns and labels:
control CAT mRNA = test: Cell-free translation of control CAT mRNA in rabbit reticulocyte lysates (Example 39); format: biochemical; conditions: 0.2 or 1 μM
Method: (§1) A target mRNA having complementarity to these oligomers at the initiation codon region was prepared by standard cloning techniques with […] catalyzed by T7 polymerase (Promega MEGAscript kit for uncapped RNA), according to the manufacturer's protocol. Control CAT mRNA was obtained from GIBCO as a control for specificity.
Target mRNA and control CAT mRNA were translated in a cell-free translation assay in rabbit reticulocyte lysates (Promega), in the presence of ^35 [S]-Cys (NEN/DuPont) following the manufacturer's directions. Oligos 2567-1 and 3169-1 were added to individual translation reactions at […], final concentrations. RNAse-H (Promega Corp.) was added to all the translation reactions at 0.04 units/ul. Each condition was run in triplicate. […] At the end of the translation reactions, proteins were denatured with Laemmli Sample Buffer (Novex) and the amounts of target proteins synthesized in each case were evaluated after immunoprecipitation with an hyperimmune antibody serum followed by gel fractionation of the protein products (10-20% gradient SDS-PAGE gels, Novex) and phosphoimage analysis. The amount of control CAT protein synthesized in each case was evaluated after gel fractionation of one aliquot of the denatured translation reaction (10-20% gradient SDS-PAGE gels, Novex) and phosphoimage analysis.

[1] = Stability to nuclease digestion in 10% fetal calf serum (Example 38); format: in vitro ADME; conditions: pH 8.0, 37° C., 50% full length oligomer digested, first three time points
Method: Multiple samples of each chimeric oligomer were prepared in 1.5 mL polypropylene microcentrifuge tubes on ice. Each sample contained oligomer (0.1 OD260 unit), 10% fetal calf serum (FCS, Gemini Bioproducts, Calabasas, Calif.), 20 mM HEPES (pH 8.0), 0.2% paramethylsulfonyl fluoride (PMSF), 175 mM KCl, 0.1 mM dithiothreitol, 0.1 mM EDTA, 2 mM MgCl2 and 4% glycerol--total volume=100 μL. The samples were incubated at 37° C. for specified time periods and then diluted with 0.4% NP-40/acetonitrile (35 μL), quickly frozen on dry ice and stored at -20° C. Samples were then individually thawed, diluted with water (635 μL) and analyzed immediately by reversed-phase HPLC according to the method given in the preceding example (except that a 2 mL sample loop was used to load the samples onto the column). Results are shown in tabular format below, and in graphical format in FIG. 2.

[2] = test system: complementary synthetic RNA target; test: Binding affinities of chimeric backbone oligomers to RNA (Example 35); set-up: KA (37° C.): unit not given here; conditions: for Tm: 1:1 molar ratio, 2.4 micromolar total strand, pH 7.2, 100 mM NaCl; for KA (37° C.): two-state model fit
Method: The following oligonucleotides were tested for their ability to hybridize to a complementary synthetic RNA target.
The bases shown in parentheses contain the backbone modification indicated in the middle set of brackets for each description, and likewise the terminal portions of the oligomers contain linkage structures as shown in the terminal sets of brackets. The PS/DE notation indicates an alternating array of bases beginning with a phosphorothioate linkage. For example, if there are five bases in a sequence denoted as PS/DE, they include three phosphorothioate (PS) bonds and two phosphodiester (DE) bonds.
Each oligomer was mixed with its complementary synthetic RNA target in a 1:1 molar ratio in a buffer system consisting of 20 mM sodium phosphate buffer (pH 7.2), 100 mM NaCl, 0.03% potassium sarkosylate and 0.1 mM EDTA; total strand concentration=2.4 micromolar. The resulting solutions were heated to 70° C. and slowly cooled to 4° C. over a time period of approximately 4-6 hours. […] The binding constants at 37° C.

target mRNA [3] = test: Cell-free translation of target mRNA in rabbit reticulocyte lysates (Example 39); format: biochemical
Method: as §1
Target mRNA and control CAT mRNA were translated in a cell-free translation assay in rabbit reticulocyte lysates (Promega), in the presence of ^35 [S]-Cys (NEN/DuPont) following the manufacturer's directions. Oligos 2567-1 and 3169-1 were added to individual translation reactions at […], final concentrations. RNAse-H (Promega Corp.) was added to all the translation reactions at 0.04 units/ul. Each condition was run in triplicate. Translation reactions were incubated at 37° C. for 1 hour. At the end of the translation reactions, proteins were denatured with Laemmli Sample Buffer (Novex) and the amounts of target proteins synthesized in each case were evaluated after immunoprecipitation with an hyperimmune antibody serum followed by gel fractionation of the protein products (10-20% gradient SDS-PAGE gels, Novex) and phosphoimage analysis. The amount of control CAT protein synthesized in each case was evaluated after gel fractionation of one aliquot of the denatured translation reaction (10-20% gradient SDS-PAGE gels, Novex) and phosphoimage analysis.

target mRNA [4] = test: Cleavage of target mRNA in the presence of RNAseH (Example 40); format: biochemical; conditions: for % of target mRNA cleavage: 30 minutes, estimated by visual inspection of the gel; for specificity of target mRNA cleavage: denaturing gel
Method: A target mRNA having complementarity to these oligomers at the initiation codon region was prepared by standard cloning techniques with transcription using a T7 polymerase cell-free assay (Promega MEGAscript kit for uncapped RNA), according to the manufacturer's protocol. The resulting mRNA transcript is approximately 340 nt in length.
The ability to cleave this target mRNA, in the presence of RNAseH and either of oligomers 2567-1 {[MP]-[DE]-[MP]} and 3169-1 {[MP(Rp)/DE]-[DE]-[MP(Rp)/DE]} was determined as follows.
Cell-free transcribed mRNA (100 nM) was incubated at 37° C., in a cell-free translation buffer (containing 3.5 mM MgCl2, 25 mM KCl, 70 mM NaCl and 20 mM potassium acetate), in the presence of 0.04 units/μl of RNAseH (Promega) and either of oligomers 2567-1 or 3169-1 at 0, 0.01, 0.1, 1, or 10 μM. After 30 minutes, the RNA was extracted, denatured and run in a denaturing gel. After the run, the RNA was stained with ethidium bromide and its integrity was determined by visual observation of the RNA bands present in the gel.

S1-endonuclease = test: Stability to nuclease digestion by S1-endonuclease (Example 37); format: in vitro ADME; conditions: S1-endonuclease 0.5 units/mL, pH 5.0, 37° C.; 50% full length oligomer digested
Method: The following oligomers were tested for nuclease stability in the presence of S1-endonuclease.
S1-endonuclease was purchased from Promega Corp. (Catalog #E576B, Madison, Wis.). Aliquots of each chimeric oligomer (0.05-0.075 OD260 units) were individually added to polypropylene microcentrifuge tubes containing S1-endonuclease (0.5 units/mL) in 30 mM sodium acetate (pH 5.0), 50 mM NaCl, 1.0 mM zinc acetate and 5% glycerol; total reaction volume=10 μL. These tubes were incubated at 37° C. for specified time periods, quickly frozen in dry ice and then stored in a freezer at -20° C. […] Column=Vydac Protein C4 (catalog #214TP54, 4.9 mm i.d.×250 mm long). Buffer A=50 mM triethylammonium acetate (pH 7)/1% acetonitrile; Buffer B=50 mM triethylammonium acetate (pH 7)/50% acetonitrile. […] The samples were diluted with water (50 μL) and injected onto the column using a 100 μL sample loop. Peaks corresponding to full length oligomer and its degradation products were detected by monitoring at 260 nm. The amount of degradation occurring in each reaction was determined by measuring the reduction in peak area for the full-length oligomer (identified by comparison to an external control and/or by coinjecting undigested oligomer as an internal control). The data is shown in tabular format below, and in graphic format in FIG. 1.

[5] = test system: endogenous eukaryotic RNaseH derived from HeLa cell nuclear extracts; format: biochemical; conditions: 10 μM oligomer, 1 μM RNA target
pG1035 (SplicerCAT) = test: Inhibition of CAT expression, splicing target pG1035 (SplicerCAT), in COS-7 cells; format: cell-based, African Green Monkey; conditions: 1.0 μM oligomer; ± std error; normalized to protein and luciferase; chimeric oligomers also normalized to pG1036
Method: (§2) COS-7 cells were transiently transfected with plasmids encoding either a target reporter gene or a control non-target reporter gene. These cells were then treated with various chimeric antisense or control oligomers and then assayed for the expression of the reporter genes.
pG1035: Splicer CAT, inserted into a pRc/CMV vector
COS 7 cells were plated at 1.5×10^5 cells/well in a 12 well plate format on the day before transfections began. All cultures were maintained at 37° C. On the next day, the transfection mixes were prepared. For each well of a 12 well plate, 1.0 μM oligomer was combined with 1 μg pGL2 or pSVβ+1 μg of the target CAT plasmid in 0.5 ml of Optimem (Gibco/BRL) and 18.75 μg Transfectam (for chimeric oligomers, Promega) or Lipofectamine (for all PS oligomers, Promega) also in 0.5 ml of Optimem. These quantities gave a 6.9 or 4.5 or 2.0 to 1 cationic lipid to oligomer plus DNA ratio, respectively, in one milliliter total. pGL2 and pSVβ served as transfection and oligomer specificity controls. […]
(§3) The cell lysates were then assayed for CAT, and luciferase or […] activity, and the total protein concentration was determined as described below. […]
(§4) […] of reaction mixture was then added to each tube, which was then incubated for, typically, approximately 1 hour in a 37° C. oven. […] The sample was then counted in a Packard scintillation counter.
(§5) This assay was performed generally as follows according to standard procedures. 20 μof lysate was combined with 100 μl of luciferase assay reagent (Promega) and counted in a scintillation counter (Packard) within 20 seconds (as recommended by Promega). […]
Six μl of lysate per well was added, followed by 300 μl Coomassie Protein Assay Reagent (Pierce) per well. The individual sample plates were then read at A570 on a microplate reader (Molecular Devices). […]
Oligomers were transfected into COS-7 cells and lysates were made and assayed as described previously. […] N.D.=not determined. […]

pG1036 (wild-type CAT) = test: Inhibition of CAT expression, non-splicing control pG1036 (wild-type CAT), in COS-7 cells; format: cell-based, African Green Monkey; conditions: 1.0 μM oligomer; ± std error; normalized to protein and luciferase
Method: as §2
pG1036: Wild-type CAT, inserted into a pRc/CMV vector
COS 7 cells were plated at 1.5×10^5 cells/well in a 12 well plate format on the day before transfections began. All cultures were maintained at 37° C. On the next day, the transfection mixes were prepared. […] These quantities gave a 6.9 or 4.5 or 2.0 to 1 cationic lipid to oligomer plus DNA ratio, respectively, in one milliliter total. pGL2 and pSVβ served as transfection and oligomer specificity controls. […]
as §3, §4, §5

Substance | inhibition of control CAT mRNA translation (control CAT mRNA) | Half-Life for Degradation [1] | Tm [2] | KA (37° C.) [2] | inhibition of target mRNA translation (target mRNA [3]; 0.2 μM) | inhibition of target mRNA translation (target mRNA [3]; 1 μM) | % of target mRNA cleavage (target mRNA [4]; 0.01 μM) | % of target mRNA cleavage (target mRNA [4]; 0.1 μM) | % of target mRNA cleavage (target mRNA [4]; 1 μM) | % of target mRNA cleavage (target mRNA [4]; 10 μM) | specificity of target mRNA cleavage (target mRNA [4]) | Half-Life for Degradation (S1-endonuclease) | RNaseH Cleavage after 2 Hrs. at 37° C. [5] | percent inhibition of CAT expression, pG1035 = splicing (pG1035 (SplicerCAT)) | percent inhibition of CAT expression, pG1036 = non-splicing (pG1036 (wild-type CAT))
2567-1: 5'-GTCTTCCA(TGCAT)GTTGTCC-3' [MP][DE][MP] [Oligomer 2567-1] | little inhibition | 5.8 h | 45.6 °C | 2.9 × 10^7 | approximately 0% | approximately 50% | 2% | 15% | ~ 50% and 50% | 80% | good specificity, cleaving the target mRNA in one position | 1.7 h |  |  | 
3169-1: 5'-GTCTTCCA(TGCAT)GTTGTCC-3' [MP(Rp)/DE][DE][MP(Rp)/DE] [Oligomer 3169-1] | little inhibition | 3.4 h | 62.6 °C | 6.0 × 10^14 | approximately 50% | ~90% | 5% | 40% | ~ 98% and 98% | 100% | good specificity, cleaving the target mRNA in one position | 0.9 h | 52.0% |  | 
XV-5: 24mer, all phosphorothioate: 5' cac tca cct tta ggg aaa tag gcc 3' (CACTCACCTTTAGGGAAATAGGCC; all phosphorothioate, sugars by position and methylation of C not given here) |  |  |  |  |  |  |  |  |  |  |  |  |  | 32 ± 1% | 35 ± 1%
XV-6: 24mer, all phosphorothioate: 5' cac tca atc aat gac tag tct gca 3' (CACTCAATCAATGACTAGTCTGCA; all phosphorothioate, sugars by position and methylation of C not given here) |  |  |  |  |  |  |  |  |  |  |  |  |  | 23 ± 15% | 30 ± 4%
